From patent publication US11391740B2, “Methods and materials for identifying and treating cancer” (Mayo Foundation for Medical Education and Research, priority 2019, dated 2022)

Assays:
C4-2ENZ-R cells = experiment: SRB cell proliferation assay in enzalutamide-resistant C4-2 cells; format: cell-based, human; conditions: for sensitivity of C4-2ENZ-R cells compared with C4-2CON cells by half maximal inhibitory concentration (IC50): C4-2ENZ-R vs C4-2CON, 4 days, FIGS. 5A-5C
Method: FIGS. 5A-5D: Dual inhibition of BET and CBP/p300 overcomes ENZ-resistance in ARPCa. A: Heatmap showing the sensitivity of control (C4-2CON) and enzalutamide-resistant C4-2 cells (C4-2ENZ-R) to various inhibitor. B-C: C4-2CON and C4-2ENZ-R cells were treated with the indicated concentrations of BET inhibitor (JQ1) and CBP/p300 inhibitor (CPI637) for 4 days, the cell proliferation was measured by SRB assay, and the 96 well plates were imaged. Data are represented as means±s.d., n=4. Statistical significance was determined by two-way ANOVA. D: C4-2ENZ-R cells were treated with the indicated concentrations of ENZ, JQ1, CPI637, or a combination of JQ1 and CPI-637, and cell proliferation was measured by a SRB assay. Data are represented as means±s.d., n=6. Statistical significance was determined by two-way ANOVA.
FIGS. 7A-7E. Full-length AR, but not AR variants, drives ENZ-resistant cell proliferation. A: C4-2CON and C4-2ENZ-R cells were treated with the indicated concentrations of ENZ, and cell proliferation was measured by SRB assay. Data are represented as means±s.d., n=6. Statistical significance was determined by two-way ANOVA. B: Heatmap showing RNA-seq read intensity of the canonical AR signature genes in C4-2CON and C4-2ENZ-R cells. C: RT-qPCR showing the mRNA level of KLK3 in C4-2CON and C4-2ENZ-R cells. Data are represented as means±s.d., n=3. Statistical significance was determined by unpaired two-tailed Student's t tests. D: Western blot analysis showing the expression of full-length (FL) AR and AR variants (Vs) in C4-2CON and C4-2ENZ-R cells. ERK2 was used as a loading control. E: UCSC genome browser tracks showing RNA-seq signals of AR and AR variants in C4-2CON and C4-2ENZ-R cells.
LNCaP, VCaP, LAPC4 PCa, and 293T cell lines were purchased from ATCC. […]
293T cells were co-transfected with control shRNA or shRNA specific for human AR, CXXC5, TET2, ID1, ID3 and PFN2. […] Cells were fixed at different time points (day 0-5) and cell growth was measured using a sulforhodamine B (SRB) assay (He et al., Nature Commun., 7:13122 (2016)).

ENZ-resistant PDXs = experiment: ENZ-resistant patient-derived xenograft (PDX) tumor growth in mice; format: in vivo; conditions: castrated male mice; ENZ 10 mg/kg, CPI637 10 mg/kg, JQ1 50 mg/kg, oral gavage 5 days per week
C4-2ENZ-R xenografts = experiment: C4-2ENZ-R xenograft tumor growth in SCID mice; format: in vivo; conditions: ENZ 10 mg/kg per day, 28 days, FIGS. 1A, 1B
Method: FIGS. 1A-1G. Genome-wide profiling of AR chromatin binding in ENZ-resistant PCa cells. A: Effect of ENZ treatment on growth of C4-2CON and C4-2ENZ-R xenografts in mice. C4-2ENZ-R and C4-2CON cells suspended in 0.1 mL matrigel were injected into the right flank of 6-week old male SCID mice. After the volume of tumor nodules reached about 100 mm^3, mice were randomly assigned within control and ENZ-resistant groups and were treated with ENZ at 10 mg/kg or vehicle per day and tumor volume was measured every 4 days. B: After 28 days of treatment, tumors were isolated from mice in each group and photographed. Data are represented as means±s.d., n=8. Statistical significance was determined by two-way ANOVA. […] D: AR was knocked down by specific shRNAs in C4-2CON and C4-2ENZ-R cells, and cell proliferation was measured by SRB assay. […] Statistical significance was determined by two-way ANOVA. E: Venn diagram showing AR chromatin binding peaks in C4-2CON and C4-2ENZ-R cells detected by ChIP-seq. F: Heatmaps showing ChIP-seq read intensity of AR, H3K27ac, and FOXA1 in C4-2CON and C4-2ENZ-R cells. […]
FIGS. 6A-6G. […] Representative images (scale bar, 50 μm), and quantified data are show in (a) and (b), respectively. […] Tumor size was measured every 4 days (d). After 28 days of treatment, tumors isolated from mice were photographed (e), and tumor weight was measured (f). […]

CRPC PDX = experiment: CRPC patient-derived xenograft (PDX) tumor growth in mice; format: in vivo; conditions: ENZ 10 mg/kg daily, 32 days
Description: FIG. 11A-D. Upregulation of CXXC5 and ID1 in AFI-resistant PCa patients. A: H&E staining and IHC for AR, CXXC5, and ID1 in hormone naïve, CRPC and ENZ-resistant PC patient specimens. Scale bar, 200 μm. B: H&E staining and IHC for AR, CXXC5, and ID1 in ABI-resistant ARPC patient specimens. Scale bar, 200 m (low magnification); 50 m (high magnification). C-D: Comparison of ENZ response in CRPC and ENZ-resistant PDXs. CRPC and ENZ-resistant PDXs were planted into the right flank of 6 week-old male SCID mice. After the tumor volume reached about 100 mm^3, mice were randomly assigned within each tumor group and treated with 10 mg/kg of […] daily. Tumor size was measured every 4 days (C). After 32 days of treatment, tumors were isolated and photographed (D). Data are represented as means±s.d., n=8. Statistical significance was determined by two-way ANOVA.
NOD-SCID male mice were generated in house and used for animal experiments. All mice were housed under standard conditions with a 12 hour light/dark cycle and access to food and water ad libitum and maintained under pathogen-free conditions. […] Mice were treated 5 days per week by oral gavage and tumor growth was measured in a blinded fashion using digital calipers. The tumor volume was calculated using the following equation: tumor volume=length×width×width×0.5.

SMILES | sensitivity of C4-2ENZ-R cells compared with C4-2CON cells by half maximal inhibitory concentration (IC50) (C4-2ENZ-R cells) | response of ENZ-resistant PDXs to treatment (ENZ-resistant PDXs) | growth of C4-2ENZ-R cells under ENZ treatment in vitro (C4-2ENZ-R cells; in vitro, FIG. 7A) | growth of C4-2ENZ-R xenografts under ENZ treatment in vivo (C4-2ENZ-R xenografts) | response of CRPC PDX to treatment (CRPC PDX)
C[C@@H]1CC(=O)Nc2cccc(-c3ccc4c(c3)c(-c3cnn(C)c3)nn4C)c2N1 [CPI637] | much more sensitive | responded |  |  | 
Cc1sc2c(c1C)C(c1ccc(Cl)cc1)=N[C@@H](CC(=O)OC(C)(C)C)c1nnc(C)n1-2 [JQ1] | much more sensitive | responded |  |  | 
CNC(=O)c1ccc(N2C(=S)N(c3ccc(C#N)c(C(F)(F)F)c3)C(=O)C2(C)C)cc1F [ENZ, enzalutamide] |  |  | resistant to ENZ treatment | resistant to ENZ treatment | still responded
